Results published in ChEMBL document CHEMBL1201862, “PubChem BioAssay data set” (2004).
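Cultured in 96-well plates, cells were exposed to test compound for 48 hours across five concentrations. GI50 marks 50% less growth.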 Activity calls are given as the source filed them. Rule as the data show it: active = GI50 up to about 1.1 µM and inactive = higher.

Key:
Assay in all cases: NCI tumour cell line growth inhibition, 48 h
[1] = tested on: SR
[2] = tested on: SF-295
[3] = tested on: SK-MEL-28
[4] = tested on: MOLT-4
[5] = tested on: HL-60
[6] = tested on: SNB-75
[7] = tested on: COLO 205
[8] = tested on: ACHN
[9] = tested on: Malme-3M
[10] = tested on: OVCAR-3
[11] = tested on: M14
[12] = tested on: HCT-116
[13] = tested on: SK-MEL-5
[14] = tested on: KM12
[15] = tested on: HT-29
[16] = tested on: NCI-H23
[17] = tested on: HOP-92
[18] = tested on: MDA-MB-435
[19] = tested on: IGROV-1

| SMILES | GI50 [1] | GI50 [2] | GI50 [3] | GI50 [4] | GI50 [5] | GI50 [6] | GI50 [7] | GI50 [8] | GI50 [9] | GI50 [10] | GI50 [11] | GI50 [12] | GI50 [13] | GI50 [14] | GI50 [15] | GI50 [16] | GI50 [17] | GI50 [18] | GI50 [19] |
| --- | --- | --- | --- | --- | --- | --- | --- | --- | --- | --- | --- | --- | --- | --- | --- | --- | --- | --- | --- |
| CN(C)c1ccc(/C=C(\C#N)C(=O)c2ccccc2)cc1Br | 38.5 µM (inactive) | > 100 µM (inactive) | 46.5 µM (inactive) | 36.2 µM (inactive) | 25.7 µM (inactive) | 41.8 µM (inactive) | > 100 µM (inactive) | > 100 µM (inactive) | > 100 µM (inactive) | > 100 µM (inactive) | > 100 µM (inactive) | > 100 µM (inactive) | 96.2 µM (inactive) | > 100 µM (inactive) | > 100 µM (inactive) | > 100 µM (inactive) | > 100 µM (inactive) |  |  |
| CCn1c(-c2cc3ccccc3cc2OC(C)=O)n[nH]c1=S | 0.624 µM (active) | 23.4 µM (inactive) | 32.4 µM (inactive) | 18.7 µM (inactive) | 0.0805 µM (active) |  |  | 35.8 µM (inactive) |  | 23.7 µM (inactive) | 24.2 µM (inactive) | 18.5 µM (inactive) | 14.9 µM (inactive) | 27.6 µM (inactive) | 30.4 µM (inactive) | 30.5 µM (inactive) | 58.1 µM (inactive) | 23.3 µM (inactive) | 39.6 µM (inactive) |
| COc1ccc(O)cc1C=O | 18.8 µM (inactive) | > 100 µM (inactive) | 65.3 µM (inactive) | 67.6 µM (inactive) | 21.4 µM (inactive) |  | > 100 µM (inactive) | > 100 µM (inactive) | 46.3 µM (inactive) | > 100 µM (inactive) | 43.2 µM (inactive) | 50 µM (inactive) | 61 µM (inactive) | 23.8 µM (inactive) | > 100 µM (inactive) | > 100 µM (inactive) | > 100 µM (inactive) |  | > 100 µM (inactive) |
| CCOC(=O)C1=C(OS(=O)(=O)C(F)(F)F)CCCC1 | > 100 µM (inactive) | > 100 µM (inactive) | > 100 µM (inactive) | > 100 µM (inactive) | > 100 µM (inactive) | > 100 µM (inactive) | > 100 µM (inactive) | > 100 µM (inactive) | > 100 µM (inactive) | > 100 µM (inactive) | > 100 µM (inactive) |  | 83 µM (inactive) | > 100 µM (inactive) | > 100 µM (inactive) | > 100 µM (inactive) | > 100 µM (inactive) | > 100 µM (inactive) | > 100 µM (inactive) |
| N#Cc1nnc2c3c(-c4ccc(Cl)cc4)c(C#N)c(O)nc3nn2c1N | 2.14 µM (inactive) | 5.3 µM (inactive) | 11.9 µM (inactive) | 2.62 µM (inactive) |  |  | 11.7 µM (inactive) | 8.11 µM (inactive) | 14.4 µM (inactive) | 3.27 µM (inactive) | 6.89 µM (inactive) | 3.51 µM (inactive) | 6.71 µM (inactive) | 11.9 µM (inactive) | 5 µM (inactive) | 5.81 µM (inactive) | 5.2 µM (inactive) | 8.69 µM (inactive) | 2.61 µM (inactive) |
| Nc1nc(-c2ccco2)cc(-c2ccco2)n1 | > 100 µM (inactive) | > 100 µM (inactive) | > 100 µM (inactive) | > 100 µM (inactive) | > 100 µM (inactive) | 64.1 µM (inactive) | > 100 µM (inactive) | > 100 µM (inactive) | > 100 µM (inactive) | > 100 µM (inactive) | > 100 µM (inactive) | > 100 µM (inactive) | > 100 µM (inactive) | > 100 µM (inactive) | > 100 µM (inactive) | > 100 µM (inactive) |  |  | > 100 µM (inactive) |
| O=C1OC(c2ccccc2)N(C(=O)c2ccccc2)C1Cc1ccc(OCc2ccccc2)cc1 (stereo unspecified) | > 100 µM (inactive) |  | > 100 µM (inactive) |  | 9.89 µM (inactive) | 15.7 µM (inactive) | > 100 µM (inactive) | 6.82 µM (inactive) |  |  | > 100 µM (inactive) | > 100 µM (inactive) | 43.8 µM (inactive) |  |  | 36.7 µM (inactive) | 3.91 µM (inactive) | > 100 µM (inactive) | > 100 µM (inactive) |
| COc1ccc(C2S/C(=C\c3cccc(O)c3)C(=O)N2NC(=O)Cc2ccccc2)cc1 (stereo unspecified) | > 100 µM (inactive) | > 100 µM (inactive) |  | > 100 µM (inactive) | > 100 µM (inactive) | > 100 µM (inactive) | > 100 µM (inactive) | > 100 µM (inactive) | > 100 µM (inactive) |  | > 100 µM (inactive) | > 100 µM (inactive) | > 100 µM (inactive) | > 100 µM (inactive) | > 100 µM (inactive) | > 100 µM (inactive) | > 100 µM (inactive) |  | > 100 µM (inactive) |
